Measurements: patent US4599352A, “Antineoplastic platinum (IV) complexes and compositions” (priority 1984, dated 1986)

How the values were obtained:
[1] = tested on: IP L1210/Cisplatin; assay: Activity against IP-implanted L1210/Cisplatin leukemia resistant to cisplatin, 60 day test (Table 4); assay type: in vivo, Female CD2Fl mice
Protocol: (§1) Biological properties of the compounds of the present invention were determined following the protocol described in Cancer Chemotherapy Reports, Vol. 3, No. 3, 1972 which report is incorporated herein by reference.
Other known mechanisms of resistance for other classes of agents, such as gene amplification or target enzyme change or amplication, also need to be explored. The experiments summarized in Table 3 were conducted at the same time against both sublines using the same drug preparations. […] These experiments were repeated in a second laboratory as documented in Table 4. However, in these experiments the animals were held for 60 rather than 30 days to evaluate whether or not long-term survivors are produced after drug treatment in a more challenging setting. […]
(§2) These experiments (23-00081 3LE31 and 23-00003 3DP3l) were conducted concurrently at the Mason Research Institute, Worcester, MA under the supervision of Dr. William Cobb. See Table 4 for experimental details. The diluent control animals bearing L1210 leukemia lived a median of 8.3 days and gained 1.6 grams by Day 5. […] Female CD2Fl mice were used for these experiments.

[2] = tested on: IP L1210; assay: Activity against IP-implanted L1210 leukemia sensitive to cisplatin, 60 day test (Table 4); assay type: in vivo, Female CD2Fl mice
Protocol: as §1
(§3) Other known mechanisms of resistance for other classes of agents, such as gene amplification or target enzyme change or amplication, also need to be explored. The experiments summarized in Table 3 were conducted at the same time against both sublines using the same drug preparations. […] These experiments were repeated in a second laboratory as documented in Table 4. However, in these experiments the animals were held for 60 rather than 30 days to evaluate whether or not long-term survivors are produced after drug treatment in a more challenging setting.
(§4) This experiment (A8-00005 3LE31) was conducted at the Southern Research Institute, Birmingham, Ala. under the supervision of Dr. Daniel Griswold. The protocols were the same as those published previously (Geran et al., Cancer Chemotherapy Reports 3: No. 2, 1972 [Attachment 11]). 10^5 cells were implanted intraperitoneally in CD2Fl male mice on Day 0. Drug treatments were given intraperitoneally as single injections at the doses indicated on Days 1, 5 and 9 after tumor implantation. The diluent was saline except for NSC-271674 where 5% sodium bicarbonate was used. All drugs were prepared fresh on the day of injection, and all were administered in solution. Median survival times for both control and drug-treated mice were determined and expressed as a percentage (% T/C). Body weights were determined on Day 5 and expressed as a weight difference (body weight of the drug-treated animals minus that of the control animals in grams) (T-C). The diluent control animals lived a median of 8.4 days and gained 1.9 grams by Day 5 in this experiment. All animals, including Day 30 survivors, were used in the calculation of median survival times. The log10 change in tumor burden refers to the net log change in viable tumor cell population at the end of therapy (Rx) as compared to the start of therapy; e.g., a […] means that there was a […] and a 3 log change means there was a 1000-fold increase in tumor burden at the end of therapy. The tumor burden at the start of therapy was about 6.1×10^5 cells in this experiment.
as §2

[3] = tested on: IP-Implanted L1210 Leukemia; assay: Dose-response against IP-implanted L1210 leukemia, IP treatment Days 1, 5 and 9, 30-day test (Table 2); assay type: in vivo, CD2Fl male mice
Protocol: as §1, §4

[4] = tested on: IP L1210/Cisplatin; assay: Activity against IP-implanted L1210/Cisplatin leukemia resistant to cisplatin, 30 day test (Table 3); assay type: in vivo, Female CD2Fl mice
Protocol: as §1, §3
This experiment (A8-00005 3LE31) was conducted at the Southern Research Institute, Birmingham, Ala. under the supervision of Dr. Daniel Griswold. The protocols were the same as those published previously (Geran et al., Cancer Chemotherapy Reports 3: No. 2, 1972 [Attachment 11]). 10^5 cells were implanted intraperitoneally in CD2Fl male mice on Day 0. Drug treatments were given intraperitoneally as single injections at the doses indicated on Days 1, 5 and 9 after tumor implantation. The diluent was saline except for NSC-271674 where 5% sodium bicarbonate was used. All drugs were prepared fresh on the day of injection, and all were administered in solution. Median survival times for both control and drug-treated mice were determined and expressed as a percentage (% T/C). Body weights were determined on Day 5 and expressed as a weight difference (body weight of the drug-treated animals minus that of the control animals in grams) (T-C). The diluent control animals lived a median of 8.4 days and gained 1.9 grams by Day 5 in this experiment. All animals, including Day 30 survivors, were used in the calculation of median survival times. The log10 change in tumor burden refers to the net log change in viable tumor cell population at the end of therapy (Rx) as compared to the start of therapy; e.g., a […] means that there was a […] and a 3 log change means there was a 1000-fold increase in tumor burden at the end of therapy. The tumor burden at the start of therapy was about 6.1×10^5 cells in this experiment. […]

Compound: N.N.[Cl][Pt][Cl] [Cisplatin, cis-diamminedichloroplatinum (II), reference compound]
- 60 Day Survivors/Total ([1]; 1.25 mg/kg/dose): 0/10
- Body Weight Difference ([1]; 1.25 mg/kg/dose): -0.1 Grams
- Median % T/C ([1]; 1.25 mg/kg/dose): 103%
- 60 Day Survivors/Total ([1]; 5 mg/kg/dose): 0/10
- Body Weight Difference ([1]; 5 mg/kg/dose): -2.3 Grams
- Median % T/C ([1]; 5 mg/kg/dose): 110%
- 60 Day Survivors/Total ([1]; 10 mg/kg/dose): 0/10
- Body Weight Difference ([1]; 10 mg/kg/dose): -5.1 Grams
- Median % T/C ([1]; 10 mg/kg/dose): 87%
- 60 Day Survivors/Total ([1]; 20 mg/kg/dose): 0/10
- Body Weight Difference ([1]; 20 mg/kg/dose): -5.6 Grams
- Median % T/C ([1]; 20 mg/kg/dose): Toxic
- Activity against L1210/cisplatin ([1]; mouse, in vivo): lack of activity
- 60 Day Survivors/Total ([2]; 1.25 mg/kg/dose): 0/10
- Body Weight Difference ([2]; 1.25 mg/kg/dose): -0.6 Grams
- Median % T/C ([2]; 1.25 mg/kg/dose): 127%
- 60 Day Survivors/Total ([2]; 5 mg/kg/dose): 0/10
- Body Weight Difference ([2]; 5 mg/kg/dose): -2.4 Grams
- Median % T/C ([2]; 5 mg/kg/dose): 240%
- 60 Day Survivors/Total ([2]; 10 mg/kg/dose): 0/10
- Body Weight Difference ([2]; 10 mg/kg/dose): -5.1 Grams
- Median % T/C ([2]; 10 mg/kg/dose): 107%
- 60 Day Survivors/Total ([2]; 20 mg/kg/dose): 0/10
- Body Weight Difference ([2]; 20 mg/kg/dose): -5.8 Grams
- Median % T/C ([2]; 20 mg/kg/dose): Toxic
- 30-Day Survivors/Total ([3]; 1.25 mg/kg/dose IP): 0/6
- Approx. Log10 Change in Tumor Burden at End of Rx ([3]; 1.25 mg/kg/dose IP): ~2.9 log10
- Body Weight Difference ([3]; 1.25 mg/kg/dose IP): -1.0 Grams
- Median % T/C ([3]; 1.25 mg/kg/dose IP): 123%
- 30-Day Survivors/Total ([3]; 5 mg/kg/dose IP): 0/6
- Approx. Log10 Change in Tumor Burden at End of Rx ([3]; 5 mg/kg/dose IP): ~2.4 log10
- Body Weight Difference ([3]; 5 mg/kg/dose IP): -1.4 Grams
- Median % T/C ([3]; 5 mg/kg/dose IP): 152%
- 30-Day Survivors/Total ([3]; 10 mg/kg/dose IP): 0/6
- Approx. Log10 Change in Tumor Burden at End of Rx ([3]; 10 mg/kg/dose IP): ~1.9 log10
- Body Weight Difference ([3]; 10 mg/kg/dose IP): -1.3 Grams
- Median % T/C ([3]; 10 mg/kg/dose IP): 166%
- 30-Day Survivors/Total ([3]; 20 mg/kg/dose IP): 3/6
- Approx. Log10 Change in Tumor Burden at End of Rx ([3]; 20 mg/kg/dose IP): ~-5.7 log10
- Body Weight Difference ([3]; 20 mg/kg/dose IP): -5.0 Grams
- Median % T/C ([3]; 20 mg/kg/dose IP): 357%
- Log reduction in tumor cell burden at the end of therapy ([3]; best dose): -5.7 log10
- Optimal dose (dose producing best therapeutic response) ([3]; day 1, 5 and 9 schedule): 20 mg/kg/injection
- 30 Day Survivors/Total ([4]; 1.25 mg/kg/dose): 0/6
- Approx. Log10 Change in Tumor Burden at End of RX ([4]; 1.25 mg/kg/dose): ~3.0 log10
- Median % T/C ([4]; 1.25 mg/kg/dose): 104%
- 30 Day Survivors/Total ([4]; 5 mg/kg/dose): 0/6
- Approx. Log10 Change in Tumor Burden at End of RX ([4]; 5 mg/kg/dose): ~3.1 log10
- Median % T/C ([4]; 5 mg/kg/dose): 101%
- 30 Day Survivors/Total ([4]; 10 mg/kg/dose): 0/6
- Approx. Log10 Change in Tumor Burden at End of RX ([4]; 10 mg/kg/dose): ~2.9 log10
- Median % T/C ([4]; 10 mg/kg/dose): 108%
- 30 Day Survivors/Total ([4]; 20 mg/kg/dose): 0/6
- Median % T/C ([4]; 20 mg/kg/dose): 86%
- Activity against L1210/cisplatin ([4]; mouse, in vivo): refractory
